Measured values reported in PubChem BioAssay (NCI).
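Interpolation was linear, between the two tested concentrations surrounding the appropriate level; five concentrations were tested over 48 hours in 96-well plates. Definition used: TGI = concentration required for complete inhibition of growth.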

Legend:
Test in all cases: NCI-60 cell line screen, 48 h
[1] = system: SF-268 CNS
[2] = system: HCC-2998 colon
[3] = system: UACC-62 melanoma
[4] = system: MOLT-4 leukemia
[5] = system: HCT-15 colon
[6] = system: KM12 colon
[7] = system: CAKI-1 renal
[8] = system: SF-539 CNS
[9] = system: MDA-N
[10] = system: NCI-H460 lung
[11] = system: HOP-62 NSCLC
[12] = system: M14 melanoma
[13] = system: U251 CNS
[14] = system: TK-10 renal
[15] = system: NCI-H522 lung
[16] = system: HS 578T breast
[17] = system: HCT-116 colon
[18] = system: SN12C renal
[19] = system: NCI/ADR-RES ovarian
[20] = system: MDA-MB-231 breast
[21] = system: ACHN renal
[22] = system: LOX IMVI melanoma
[23] = system: 786-0 renal
[24] = system: IGROV1 ovarian
[25] = system: DU-145 prostate
[26] = system: OVCAR-8 ovarian
[27] = system: CCRF-CEM leukemia
[28] = system: PC-3 prostate
[29] = system: SNB-75 CNS
[30] = system: T-47D breast
[31] = system: SF-295 CNS
[32] = system: BT-549 breast
[33] = system: UO-31 renal
[34] = system: COLO 205 colon
[35] = system: OVCAR-4 ovarian
[36] = system: UACC-257 melanoma
[37] = system: K-562 leukemia
[38] = system: SR leukemia
[39] = system: SK-MEL-5 melanoma
[40] = system: A498 renal
[41] = system: OVCAR-3 ovarian
[42] = system: NCI-H23 lung
[43] = system: EKVX NSCLC
[44] = system: RPMI-8226 leukemia
[45] = system: MDA-MB-435
[46] = system: HOP-92 NSCLC
[47] = system: NCI-H226 lung
[48] = system: OVCAR-5 ovarian
[49] = system: SNB-19 CNS
[50] = system: MCF7 breast
[51] = system: RXF 393 renal
[52] = system: HL-60(TB) leukemia
[53] = system: SK-MEL-2 melanoma
[54] = system: SW-620 colon
[55] = system: SK-OV-3 ovarian

## O=C1O[C@H](COC(=O)c2ccccc2)[C@@H](OC(=O)c2ccccc2)C=C1OC(=O)c1ccccc1
[1]
  TGI: 36.8 µM
[2]
  TGI: > 100 µM
[3]
  TGI: 49.6 µM
[4]
  TGI: 56 µM
[5]
  TGI: 39.6 µM
[6]
  TGI: > 100 µM
[7]
  TGI: 51.2 µM
[8]
  TGI: 32.5 µM
[9]
  TGI: > 100 µM
[10]
  TGI: 36.6 µM
[11]
  TGI: 39.4 µM
[12]
  TGI: 31.9 µM
[13]
  TGI: 32.3 µM
[14]
  TGI: 75.7 µM
[15]
  TGI: 37.8 µM
[16]
  TGI: > 100 µM
[17]
  TGI: 32 µM
[18]
  TGI: 36.9 µM
[19]
  TGI: 38.8 µM
[20]
  TGI: 36.2 µM
[21]
  TGI: 35.3 µM
[22]
  TGI: 39.3 µM
[23]
  TGI: 33.7 µM
[24]
  TGI: 57.2 µM
[25]
  TGI: > 100 µM
[26]
  TGI: 45.4 µM
[27]
  TGI: 41.9 µM
[28]
  TGI: 62.7 µM
[29]
  TGI: > 100 µM
[30]
  TGI: 54.6 µM
[31]
  TGI: 34.8 µM
[32]
  TGI: 43.7 µM
[33]
  TGI: > 100 µM
[34]
  TGI: 38.3 µM
[35]
  TGI: 48.7 µM
[36]
  TGI: 69.3 µM
[37]
  TGI: 57.4 µM
[38]
  TGI: 46.9 µM
[39]
  TGI: 36.2 µM
[40]
  TGI: > 100 µM
[41]
  TGI: 35.9 µM
[42]
  TGI: 42.6 µM
[43]
  TGI: 34.3 µM
[44]
  TGI: 71.8 µM
[45]
  TGI: 69.9 µM
[46]
  TGI: 42.8 µM
[47]
  TGI: 45.6 µM
[48]
  TGI: 40.9 µM
[49]
  TGI: 35.6 µM
[50]
  TGI: 91.3 µM
[51]
  TGI: 31.4 µM
[52]
  TGI: 27.1 µM
[53]
  TGI: 50.8 µM
[54]
  TGI: 35.9 µM
[55]
  TGI: > 100 µM

## S=C1NC2=C(COC/C2=C\c2ccccc2Cl)C(c2ccccc2Cl)N1 (stereo not given)
[1]
  TGI: > 100 µM
[2]
  TGI: 89 µM
[3]
  TGI: > 100 µM
[4]
  TGI: 44.5 µM
[5]
  TGI: > 100 µM
[6]
  TGI: 28.6 µM
[7]
  TGI: > 100 µM
[8]
  TGI: > 100 µM
[9]
  TGI: > 100 µM
[10]
  TGI: > 100 µM
[11]
  TGI: > 100 µM
[12]
  TGI: > 100 µM
[13]
  TGI: > 100 µM
[14]
  TGI: > 100 µM
[15]
  TGI: > 100 µM
[16]
  TGI: > 100 µM
[17]
  TGI: 80.6 µM
[18]
  TGI: > 100 µM
[19]
  TGI: > 100 µM
[20]
  TGI: > 100 µM
[21]
  TGI: > 100 µM
[22]
  TGI: 70.7 µM
[23]
  TGI: > 100 µM
[24]
  TGI: > 100 µM
[25]
  TGI: > 100 µM
[26]
  TGI: > 100 µM
[27]
  TGI: 45.1 µM
[28]
  TGI: > 100 µM
[29]
  TGI: > 100 µM
[30]
  TGI: > 100 µM
[31]
  TGI: > 100 µM
[32]
  TGI: > 100 µM
[33]
  TGI: > 100 µM
[34]
  TGI: 33.5 µM
[35]
  TGI: > 100 µM
[36]
  TGI: > 100 µM
[37]
  TGI: > 100 µM
[38]
  TGI: 20.9 µM
[39]
  TGI: 34.6 µM
[40]
  TGI: > 100 µM
[41]
  TGI: > 100 µM
[42]
  TGI: > 100 µM
[43]
  TGI: > 100 µM
[44]
  TGI: > 100 µM
[45]
  TGI: > 100 µM
[46]
  TGI: > 100 µM
[47]
  TGI: > 100 µM
[48]
  TGI: > 100 µM
[49]
  TGI: > 100 µM
[50]
  TGI: 63.1 µM
[51]
  TGI: > 100 µM
[52]
  TGI: 34.4 µM
[53]
  TGI: 67.1 µM
[54]
  TGI: > 100 µM
[55]
  TGI: > 100 µM
